Experimental data published in ChEMBL document CHEMBL2150891, “Compounds and Their Use as BACE Inhibitors: Patent Highlight” (ACS Med Chem Lett, 2012).

Legend:
[1] = biological target: T1, Beta-secretase 1 (Homo sapiens, UniProt P56817); assay: Inhibition of BACE by TR-FRET assay
[2] = biological target: T1, Beta-secretase 1; assay: Inhibition of BACE by secreted APPbeta release assay

T1 sequence (P56817 whole entry): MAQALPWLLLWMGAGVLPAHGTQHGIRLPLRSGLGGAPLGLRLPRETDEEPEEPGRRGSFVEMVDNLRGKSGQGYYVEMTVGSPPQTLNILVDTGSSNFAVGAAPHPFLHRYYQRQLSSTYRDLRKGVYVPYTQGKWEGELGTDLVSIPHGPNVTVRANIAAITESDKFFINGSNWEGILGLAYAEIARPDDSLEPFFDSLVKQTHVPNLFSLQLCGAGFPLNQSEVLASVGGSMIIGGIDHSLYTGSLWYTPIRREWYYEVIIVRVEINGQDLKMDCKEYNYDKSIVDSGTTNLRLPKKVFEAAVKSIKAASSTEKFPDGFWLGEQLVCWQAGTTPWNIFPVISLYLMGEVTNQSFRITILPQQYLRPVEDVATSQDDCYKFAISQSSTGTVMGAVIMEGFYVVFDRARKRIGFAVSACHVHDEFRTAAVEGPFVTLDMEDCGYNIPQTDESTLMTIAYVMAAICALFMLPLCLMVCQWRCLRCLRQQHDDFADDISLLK

IC50 [1]: 1.4 nM
IC50 [2]: 2.2 nM
Structure (SMILES): CC#Cc1cncc(-c2ccc3c(c2)C2(N=C(C)C(N)=N2)C2(CCC(OC)CC2)O3)c1 (configuration not stated)
